Article PMC6095626, “Screening of the Pathogen Box for inhibitors with dual efficacy against Giardia lamblia and Cryptosporidium parvum” (PLoS Neglected Tropical Diseases, 2018)
Where “and” joins values, the source holds several entries; their conditions need not be identical. Equal values may be shown once. Read-outs that look alike come from different tables or passages of the source. Marks after values point to notes of the source that are not given here.

Key:
HepG2 cells [1] = details: cited from earlier work; for CC50: read-out: HepG2 CC50 (literature values); for HepG2 CC20 (literature values): CC20 (footnote ^)
HepG2 cells [2] = experiment: Cytotoxicity against HepG2 cells, AlamarBlue viability assay, 48 hours; type: cell-based, human; details: read-out: HepG2 CC50 (this study)
Source text: (§1) Mammalian cell cytotoxicity assay data performed on HepG2 (human hepatocellular carcinoma) cells and described as CC20 or CC50 values are provided in supporting documentation that accompanied the Pathogen Box for approximately three quarters of the 400 compounds. However, no details of the assay conditions or parameters were provided. In this study, selected compounds were further tested for cytotoxicity against HepG2 cells as previously described. Briefly, cells were exposed to two-fold serial dilutions of compounds for 48 hours and cytotoxicity was assessed using the AlamarBlue® viability assay (Thermo Fisher Scientific, Waltham, MA). Each dilution was assayed in quadruplicate and concentrations causing 50% growth inhibition (CC50) were calculated by non-linear regression using GraphPad Prism 7 software (GraphPad Software, San Diego, CA).

[3] = test system: C. parvum (UGA1 Nluc expressing strain in HCT-8 cells); experiment: microbe, parasite or virus in culture; type: cell-based, Cryptosporidium parvum; details: for Crypto (10 uM) Mean % inhibition: initial Pathogen Box screen, single concentration 10 µM, inhibition compared to DMSO wells; for C. parvum cell growth inhibition in the initial screen: 10 μM
Summary of the method: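 Parasite growth quantified by NanoLuc luminescence from lysed infected HCT-8 cells, with EC50 fitted from dose curves. Compounds, single-dose 10 μM or serially diluted, were added to confluent 48 h monolayers before infection with bleached UGA1 Nluc oocysts.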

[4] = test system: G. lamblia trophozoites (luciferase expressing, WBC6); experiment: microbe, parasite or virus in culture; type: cell-based, Giardia lamblia; details: for Giardia (16 uM) Mean % inhibition: initial Pathogen Box screen, single concentration 16 µM, inhibition compared to DMSO wells; for EC50: read-out: G. lamblia EC50; for inhibition at 16 µM: read-out: Giardia (16 uM) Mean % inhibition
Summary of the method: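 Incubation ran 24 h at 37 °C under anaerobic conditions, with compound added in equal volume to trophozoites (WBC6, luciferase-expressing, 250,000 cells/mL). Bioluminescence was the read-out, cross-checked by MOXI Z counts on a duplicate plate; metronidazole served as control (1:2 dilutions from 40 μM).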

C. parvum = details: cited from earlier work
G. lamblia trophozoites = experiment: G. lamblia growth inhibition counted with MOXI Z Mini Automated Cell Counter; type: cell-based; details: Giardia duodenalis, 24 h, read-out: G. lamblia EC50 by MOXI coulter counter
Experimental: Preliminary effective concentration that causes 50% growth inhibition (EC50) assays were performed on the luciferase expressing and wild-type (control) G. lamblia cells to establish a correlation between manually counted cells and the bioluminescent signal read out. Trophozoites were harvested by chilling cultures on ice for 30 minutes and plated by adding 150 μL per well at a concentration of 250,000 cells/mL. Metronidazole (Sigma, St. Louis, MO) was used as a control and was serially diluted 1:2 from 40 μM to 0.04 μM and 150 μL was added to the 150 μL of the G. lamblia trophozoites. Plates were covered in plastic low-evaporation lids, sealed in individual anaerobic BD GasPak Bio-Bags (Becton Dickinson, San Jose, CA) and incubated at 37 °C for 24 hours. Plates were then iced for 30 minutes and 250 μL of resuspended cells were transferred to a solid white 96-well plate and 50 μL of 10 mg/mL D-luciferin was added to a final reaction concentration of 1.67 mg/mL. Plates were incubated on a plate shaker at 37 °C for 30 minutes and read on an EnVision Plate Reader. A duplicate plate was concurrently set up and assayed using a MOXI Z Mini Automated Cell Counter Kit (Orflo, Ketchum, ID). Results obtained from the bioluminescence assay and the MOXI counter data were compared to evaluate their correlation to each another. […]

G. lamblia = details: read-out: G. lamblia EC50 (literature), cited from earlier work
[5] = Cytotoxicity against HepG2 cells, AlamarBlue viability assay, 48 hours; type: cell-based, human; details: human, HepG2 cells, read-out: HepG2 CC50 (this study)
Source text: as §1

[6] = ref Pathogen_Box_Activity_Biological_Data_ Structure & Smiles (https://www.pathogenbox.org/about-pathogen-box/composition)
[7] = Nluc C. parvum in HCT-8 cells, 48 hours, read-out: C. parvum EC50
[8] = luciferase expressing G. lamblia trophozoites, 24 hours, D-luciferin bioluminescence read-out
[9] = IOWA strain (48h), read-out: C. parvum EC50 (literature)
[10] = Cryptosporidium parvum, HCT-8, read-out: Crypto (10 uM) Mean % inhibition
[11] = Cryptosporidium parvum, HCT-8, 48 h, read-out: C. parvum EC50, Nluc C. parvum in HCT-8 cells, 48 hours

## OCCc1ccc(Nc2nccc(-c3nnc4ccccn34)n2)cc1 [MMV028694]
HepG2 cells [1]; [6]
  CC50: 8.1 µM
HepG2 cells [2]
  CC50: 15.9 µM
[3]; [7]
  EC50: 1.56 ± 0.5 µM
[3]
  Crypto (10 uM) Mean % inhibition: 85%
[4]
  Giardia (16 uM) Mean % inhibition: 99%
[4]; [8]
  EC50: 3.88 ± 1.27 µM

## O=C(Nc1cccnc1)c1c(O)c2cccc3c2n(c1=O)CC3 [MMV676395]
HepG2 cells [1]; [6]
  CC50: > 100 µM
HepG2 cells [2]
  CC50: > 40 µM
[3]; Nluc C. parvum in HCT-8 cells, 48 hours
  C. parvum EC50: not potent
[3]
  Crypto (10 uM) Mean % inhibition: 85%
[4]
  Giardia (16 uM) Mean % inhibition: 98%
[4]; [8]
  EC50: 1.57 ± 0.2 µM

## CCOc1ccc2cc(-c3nn(CC4CCN(C)CC4)c4ncnc(N)c34)ccc2c1 [MMV688854, reference compound]
C. parvum; same strain of Nluc C. parvum, read-out: C. parvum EC50 (previously shown)
  EC50: 2.7 µM
[3]; 48 hours
  C. parvum cell growth inhibition in the initial screen: 79%
[4]
  Giardia (16 uM) Mean % inhibition: 9%

## O=[N+]([O-])c1cn2c(n1)OC[C@@H](OCc1ccc(OC(F)(F)F)cc1)C2 [MMV688755]
HepG2 cells [1]; [6]
  CC50: > 50 µM
HepG2 cells [2]
  CC50: > 40 µM
[3]
  Crypto (10 uM) Mean % inhibition: 17%
[4]
  Giardia (16 uM) Mean % inhibition: 99%
[4]; [8]
  EC50: 1.57 ± 0.38 µM

## Cc1ncc([N+](=O)[O-])n1CCO [metronidazole, Metronidazole]
[4]; Giardia duodenalis, 24 h
  EC50: 2.24 µM
G. lamblia trophozoites
  EC50: 1.06 µM
G. lamblia
  EC50: ~5 µM
G. lamblia; reference strain WB (48h)
  EC50: 8.65 µM

## O=C(Nc1nnc(-c2ccc(Cl)s2)o1)c1ccc(Cl)s1 [MMV676501]
HepG2 cells [1]; [6]
  CC50: 50.1 µM
HepG2 cells [2]
  CC50: > 40 µM
[3]; [7]
  EC50: 4.96 ± 1.8 µM
[3]
  Crypto (10 uM) Mean % inhibition: 93%
[4]
  Giardia (16 uM) Mean % inhibition: 78%
[4]; [8]
  EC50: 1.4 ± 0.2 µM

## CC(=O)OCC1OC([S-])C(OC(C)=O)C(OC(C)=O)C1OC(C)=O.CCP(CC)CC.[Au+] (centres unmarked) [MMV688978, Auranofin, reference compound]
HepG2 cells [1]
  CC50: 4.5 µM
C. parvum; [9]
  EC50: 2 µM
HepG2 cells [2]
  CC50: 0.5 µM
[3]; [7]
  EC50: 3.34 ± 2.7 µM
[3]
  Crypto (10 uM) Mean % inhibition: 93%
[4]
  Giardia (16 uM) Mean % inhibition: 98%
[4]; [8]
  EC50: 3.74 ± 0.46 µM
G. lamblia; WB strain (48h)
  EC50: 4 to 6 µM

## CC(C)(C)c1cnc(NC(=O)c2ccccc2O)s1 [MMV495543]
HepG2 cells [1]; [6]
  CC50: 47.6 µM
HepG2 cells [2]
  CC50: > 40 µM
[3]
  Crypto (10 uM) Mean % inhibition: 51%
[4]
  Giardia (16 uM) Mean % inhibition: 97%
[4]; [8]
  EC50: 2.77 ± 0.21 µM

## C[C@]1(COc2ccc(N3CCC(Oc4ccc(OC(F)(F)F)cc4)CC3)cc2)Cn2cc([N+](=O)[O-])nc2O1 [MMV688262, Delamanid, reference compound]
HepG2 cells [1]; [6]
  CC50: 72.5 µM
[5]
  CC50 at 48 h: > 40 µM
[3]; [10]
  inhibition at 10 µM: < 0%
[4]; Giardia duodenalis, 24 h
  EC50: 0.55 ± 0.04 µM
[4]; Giardia duodenalis
  inhibition at 16 µM: 97%

## CC(=O)Oc1ccccc1C(=O)Nc1ncc([N+](=O)[O-])s1 [MMV688991, Nitazoxanide, reference compound]
HepG2 cells [1]; [6]
  HepG2 CC20 (literature values): 6.35 ^* ^^ μM
[5]
  CC50 at 48 h: 10.7 µM
[3]; [11]
  EC50: 3.1 ± 0.4 µM
[3]; [10]
  inhibition at 10 µM: 92%
[4]; Giardia duodenalis, 24 h
  EC50: 0.8 ± 0.1 µM
[4]; Giardia duodenalis
  inhibition at 16 µM: 97%
G. lamblia; WB strain (48h)
  EC50: 0.8 µM
G. lamblia; reference strain WB (48h)
  EC50: 0.61 µM

## Oc1c(I)cc(I)c2cccnc12 [MMV002817, Iodoquinol, reference compound]
HepG2 cells [1]; [6]
  HepG2 CC20 (literature values): 2.50 ^* ^^ μM
[5]
  CC50 at 48 h: ~40 µM
[3]; [11]
  EC50: 0.48 ± 0.2 µM
[3]; Cryptosporidium parvum, HCT-8, 48 h, read-out: C. parvum cell growth inhibition in the initial screen
  inhibition at 10 µM: ≥ 95%
[3]; [10]
  inhibition at 10 µM: 95%
[4]; Giardia duodenalis, 24 h
  EC50: 2.52 ± 0.45 µM
[4]; Giardia duodenalis
  inhibition at 16 µM: 82%

## COc1cc(-c2cc(-c3ccc(S(C)(=O)=O)cc3)cnc2N)ccc1O [MMV010576]
HepG2 cells [1]; [6]
  CC50: > 10 µM
HepG2 cells [2]
  CC50: > 40 µM
[3]; [7]
  EC50: 3 µM and 2.99 µM
[3]
  Crypto (10 uM) Mean % inhibition: 87%
[4]
  Giardia (16 uM) Mean % inhibition: 94%
[4]; [8]
  EC50: 1.9 ± 0.28 µM

## COc1ccc2nccc(NC(=O)C3CCN(CCc4ccc(Cl)cc4)CC3)c2n1 [MMV688844]
HepG2 cells [1]; [6]
  CC50: > 50 µM
HepG2 cells [2]
  CC50: > 40 µM
[3]
  Crypto (10 uM) Mean % inhibition: X* (Mean or standard deviation are negative but not significantly different from the control to be a growth promoter)
[4]
  Giardia (16 uM) Mean % inhibition: 98%
[4]; [8]
  EC50: 2.3 ± 0.43 µM

## CCCSc1ccc2nc(NC(=O)OC)[nH]c2c1 [albendazole, Albendazole, reference compound]
[4]; Giardia duodenalis, 24 h
  EC50: 0.41 µM
G. lamblia; reference strain WB (48h)
  EC50: 0.23 µM

## O=C(Nc1ccc(N2CCNCC2)cc1)c1ccn2ncc(-c3cccc(Cl)c3)c2n1 [MMV022478]
HepG2 cells [1]; [6]
  CC50: > 10 µM
HepG2 cells [2]
  CC50: > 40 µM
[3]
  Crypto (10 uM) Mean % inhibition: X* (Mean or standard deviation are negative but not significantly different from the control to be a growth promoter)
[4]
  Giardia (16 uM) Mean % inhibition: 98%
[4]; [8]
  EC50: 2.41 ± 0.12 µM

## CC1CS(=O)(=O)CCN1/N=C/c1ccc([N+](=O)[O-])o1 (centres unmarked) [MMV001499, Nifurtimox, reference compound]
HepG2 cells [1]; [6]
  HepG2 CC20 (literature values): >80 ^* ^^ μM
[5]
  CC50 at 48 h: > 40 µM
[3]; [10]
  inhibition at 10 µM: < 0%
[4]; Giardia duodenalis, 24 h
  EC50: 0.64 ± 0.12 µM
[4]; Giardia duodenalis
  inhibition at 16 µM: 97%
G. lamblia; reference strain WB (48h)
  EC50: 0.37 µM

## CN1CCN(CCCOc2ncc(Nc3ncc(-c4ccc(C(F)(F)F)c(F)c4)nc3C(N)=O)cn2)CC1 [MMV687812]
HepG2 cells [1]; [6]
  CC50: 3.9 µM
HepG2 cells [2]
  CC50: 5.33 µM
[3]
  Crypto (10 uM) Mean % inhibition: 66%
[4]
  Giardia (16 uM) Mean % inhibition: 98%
[4]; [8]
  EC50: 1.25 ± 0.12 µM

## CC(C)C(Oc1cccc2ccccc12)C(=O)O (centres unmarked) [MMV676191]
C. parvum; ref MMV Pathogen_Box_Activity_Biological_Data_Smiles (https://www.pathogenbox.org/about-pathogen-box/composition), read-out: C. parvum EC50 reported in Pathogen Box datasheet
  EC50: > 10 µM
[3]; 48 hours
  C. parvum cell growth inhibition in the initial screen: 36%
[4]
  Giardia (16 uM) Mean % inhibition: 9%

## CC(C)/N=c1\cc2n(-c3ccc(Cl)cc3)c3ccccc3nc-2cc1Nc1ccc(Cl)cc1 [MMV687800, Clofazimine, reference compound]
HepG2 cells [1]
  CC50: > 20 µM
C. parvum; [9]
  EC50: 0.015 µM
[5]
  CC50 at 48 h: 26.4 µM
[3]; [11]
  EC50: 3.3 µM
[3]; [10]
  inhibition at 10 µM: 82%
[3]; read-out: C. parvum EC50, Nluc C. parvum in HCT-8 cells, 48 hours
  EC50: 3.33 ± 1.2 µM
[4]; Giardia duodenalis, 24 h
  EC50: 1.79 ± 0.23 µM
[4]; Giardia duodenalis
  inhibition at 16 µM: 98%

## c1ccc(-c2[nH]c3ccccc3c2C(c2ccccn2)N2CCCC2)cc1 (centres unmarked) [MMV688762]
[3]
  Crypto (10 uM) Mean % inhibition: X* (Mean or standard deviation are negative but not significantly different from the control to be a growth promoter)
[4]
  Giardia (16 uM) Mean % inhibition: 22%

## COc1cc(N[C@@H](C)CCCN)c2ncccc2c1 [MMV000023]
[3]
  Crypto (10 uM) Mean % inhibition: 14%
[4]
  Giardia (16 uM) Mean % inhibition: 47%
